From patent US5155123A, “Pyridine derivatives and pharmaceutical compositions containing them” (Richter Gedeon Vegyeszeti Gyar R.T., priority 1989, dated 1992)
Like-named read-outs stand apart in the source and are kept apart here.

Experiments:
gastric acid secretion = assay: gastric acid secretion-inhibiting effect, Shay's method (pylorus-ligated rats); type: in vivo, rat (female H-Wistar); conditions: Rattus norvegicus
Experimental: According to this method female H-Wistar rats weighing 120 to 150 g were starved in latticed cages for 24 hours. The animals received water ad libitum. Then their pylorus was ligated under a slight ether anaesthesia. The test compounds were administered during the surgical intervention. After 4 hours the animals were killed by ether narcosis. After excision of the stomach the volume and pH value of the gastric content were measured. In several cases the hydrochloric acid content was determined by titration.

rats = conditions: rat, in vivo, po, 120 mg/kg
[1] = system: gastric ulcers induced in rats by indomethacine; assay: inhibition of gastric ulcers induced by indomethacine in rats; type: in vivo, rat; conditions: 50 mg/kg oral dose, ulcers induced by 40 mg/kg s.c. indomethacine
Experimental: An 50 mg/kg oral dose of 1-benzyl-2-(cyanoimino)pyridine inhibits the development of gastric ulcers induced in rats by 40 mg/kg subcutaneous (s.c.) dose of indomethacine (chemically [1-(4-chlorobenzoyl)-2-methyl-5-methoxyindol-3-yl]acetic acid) by 100%.

[2] = Shay's method, female H-Wistar rats 120 to 150 g, starved 24 hours, pylorus ligated, 4 hours, given during the surgical intervention, read-out: ED50

Compound	ED50 (gastric acid secretion; [2])	also measured
N#CN=c1ccccn1Cc1ccccc1Cl [1-(2-chlorobenzyl)-2-(cyanoimino)pyridine]	1.8 mg/kg	
N#CN=c1ccccn1Cc1ccccc1 [1-benzyl-2-(cyanoimino)pyridine]	3.26 mg/kg	toxic symptom (rats): No toxic symptom; inhibition of the development of gastric ulcers [1]: 100%
Cc1ccccc1Cn1ccccc1=NC#N [2-(cyanoimino)-1-(2-methylbenzyl)pyridine]	11.7 mg/kg	
N#CN=c1ccccn1Cc1cccc(C(F)(F)F)c1 [2-(cyanoimino)-1-(3-trifluoromethylbenzyl)pyridine]	12.2 mg/kg	
O=[N+]([O-])N=c1ccccn1Cc1ccccc1 [1-benzyl-2-(nitroiminopyridine, 1-benzyl-2-(nitroimino)pyridine]	13.6 mg/kg	
N#CN=c1ccccn1Cc1ccc(F)cc1 [2-(cyanoimino)-1-(4-fluorobenzyl)pyridine]	8.36 mg/kg	
CN=C(NC#N)NCCSCc1nc[nH]c1C [cimetidine, 1-cyano-2-methyl-3-[2-[[(5-methylimidazol-4-yl)methyl]thio]ethyl]-guanidine, reference compound]		ED50 (gastric acid secretion; po, 4 h, read-out: oral ED50): 50 mg/kg
N#CN=c1ccccn1Cc1cccc(Cl)c1 [1-(3-chlorobenzyl)-2-(cyanoimino)pyridine]	9.88 mg/kg	
N#CN=c1ccccn1Cc1ccccc1F [2-(cyanoimino)-1-(2-fluorobenzyl)pyridine]	4.3 mg/kg	
